Test results published in ChEMBL document CHEMBL1201862, “PubChem BioAssay data set” (2004).
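Briefly, cells in 96-well plates were exposed to five compound concentrations for 48 h, and endpoints were estimated by linear interpolation. GI50 marks 50% less growth.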 Active and inactive are the calls of the source. Cut-off read from the data, not from the text of the source: active = GI50 up to about 1.1 µM and inactive = higher.

What was measured:
Experiment in all cases: growth of human tumour cells (NCI), 48 h
[1] = tested on: HOP-92
[2] = tested on: PC-3
[3] = tested on: SK-MEL-28
[4] = tested on: NCI-H226
[5] = tested on: CCRF-CEM
[6] = tested on: A549
[7] = tested on: SF-268
[8] = tested on: MDA-N
[9] = tested on: MDA-MB-435
[10] = tested on: NCI/ADR-RES
[11] = tested on: NCI-H23
[12] = tested on: TK-10
[13] = tested on: HT-29
[14] = tested on: SN12C
[15] = tested on: OVCAR-3
[16] = tested on: SR
[17] = tested on: HL-60
[18] = tested on: UACC-62
[19] = tested on: SNB-19
[20] = tested on: ACHN
[21] = tested on: M14
[22] = tested on: SW-620
[23] = tested on: SK-MEL-2
[24] = tested on: NCI-H522
[25] = tested on: SF-295
[26] = tested on: SK-MEL-5
[27] = tested on: SNB-75
[28] = tested on: MCF7
[29] = tested on: MDA-MB-231
[30] = tested on: BT-549
[31] = tested on: 786-0
[32] = tested on: KM12
[33] = tested on: SF-539
[34] = tested on: U-251
[35] = tested on: HCT-15
[36] = tested on: SK-OV-3
[37] = tested on: RPMI-8226
[38] = tested on: COLO 205
[39] = tested on: OVCAR-8
[40] = tested on: K562
[41] = tested on: T47D
[42] = tested on: UACC-257
[43] = tested on: HCC 2998
[44] = tested on: OVCAR-5
[45] = tested on: Malme-3M
[46] = tested on: UO-31
[47] = tested on: IGROV-1
[48] = tested on: CAKI-1
[49] = tested on: RXF 393
[50] = tested on: OVCAR-4
[51] = tested on: DU-145
[52] = tested on: LOX IMVI
[53] = tested on: EKVX
[54] = tested on: MOLT-4
[55] = tested on: HCT-116
[56] = tested on: Hs-578T
[57] = tested on: NCI-H460
[58] = tested on: HOP-62
[59] = tested on: A498

Question: With `O=C(Nc1sccc1S(=O)(=O)c1ccccc1)c1cccnc1` as the compound, how does the GI50 [1] read?
Answer: > 42.4 µM (inactive)

Question: And the GI50 [2]?
Answer: 37.6 µM (inactive)

Question: And the GI50 [3]?
Answer: 38.5 µM (inactive)

Question: And the GI50 [4]?
Answer: 13.7 µM (inactive)

Question: And the GI50 [5]?
Answer: 7.03 µM (inactive)

Question: What about the GI50 [6] of the same compound?
Answer: 11.5 µM (inactive)

Question: What about the GI50 [7] of the same compound?
Answer: 57.4 µM (inactive)

Question: What about the GI50 [8] of the same compound?
Answer: 1.02 µM (active)

Question: And the GI50 [9]?
Answer: 1.83 µM (inactive)

Question: What about the GI50 [10] of the same compound?
Answer: 3.96 µM (inactive)

Question: And the GI50 [11]?
Answer: 27 µM (inactive)

Question: What about the GI50 [12] of the same compound?
Answer: > 83 µM (inactive)

Question: And the GI50 [13]?
Answer: 5.68 µM (inactive)

Question: What about the GI50 [14] of the same compound?
Answer: 9.86 µM (inactive)

Question: And the GI50 [15]?
Answer: 11.6 µM (inactive)

Question: And the GI50 [16]?
Answer: 5.2 µM (inactive)

Question: What about the GI50 [17] of the same compound?
Answer: 0.614 µM (active)

Question: And the GI50 [18]?
Answer: 14 µM (inactive)

Question: What about the GI50 [19] of the same compound?
Answer: > 44.5 µM (inactive)

Question: What about the GI50 [20] of the same compound?
Answer: 64.9 µM (inactive)

Question: And the GI50 [21]?
Answer: 6.08 µM (inactive)

Question: What about the GI50 [22] of the same compound?
Answer: 5.92 µM (inactive)

Question: What about the GI50 [23] of the same compound?
Answer: 6.71 µM (inactive)

Question: What about the GI50 [24] of the same compound?
Answer: 7.98 µM (inactive)

Question: And the GI50 [25]?
Answer: 8.63 µM (inactive)

Question: And the GI50 [26]?
Answer: 3.61 µM (inactive)

Question: What about the GI50 [27] of the same compound?
Answer: 19.1 µM (inactive)

Question: And the GI50 [28]?
Answer: 8.07 µM (inactive)

Question: And the GI50 [29]?
Answer: > 69.5 µM (inactive)

Question: What about the GI50 [30] of the same compound?
Answer: > 37.1 µM (inactive)

Question: What about the GI50 [31] of the same compound?
Answer: 12 µM (inactive)

Question: What about the GI50 [32] of the same compound?
Answer: 4.62 µM (inactive)

Question: What about the GI50 [33] of the same compound?
Answer: 5.94 µM (inactive)

Question: And the GI50 [34]?
Answer: 2.97 µM (inactive)

Question: What about the GI50 [35] of the same compound?
Answer: 5.18 µM

Question: What about the GI50 [36] of the same compound?
Answer: 11.7 µM (inactive)

Question: What about the GI50 [37] of the same compound?
Answer: 7.52 µM (inactive)

Question: And the GI50 [38]?
Answer: 3.88 µM (inactive)

Question: And the GI50 [39]?
Answer: 22.7 µM (inactive)

Question: And the GI50 [40]?
Answer: 4.39 µM (inactive)

Question: And the GI50 [41]?
Answer: 70.6 µM (inactive)

Question: And the GI50 [42]?
Answer: 37.5 µM (inactive)

Question: What about the GI50 [43] of the same compound?
Answer: 21.3 µM (inactive)

Question: And the GI50 [44]?
Answer: > 70.6 µM (inactive)

Question: And the GI50 [45]?
Answer: 8.59 µM (inactive)

Question: What about the GI50 [46] of the same compound?
Answer: > 58.1 µM (inactive)

Question: And the GI50 [47]?
Answer: 9.02 µM (inactive)

Question: And the GI50 [48]?
Answer: > 32.7 µM (inactive)

Question: What about the GI50 [49] of the same compound?
Answer: 14.9 µM (inactive)

Question: What about the GI50 [50] of the same compound?
Answer: > 100 µM (inactive)

Question: And the GI50 [51]?
Answer: 39.2 µM (inactive)

Question: And the GI50 [52]?
Answer: 75.3 µM (inactive)

Question: What about the GI50 [53] of the same compound?
Answer: 48.9 µM (inactive)

Question: What about the GI50 [54] of the same compound?
Answer: 5.35 µM (inactive)

Question: What about the GI50 [55] of the same compound?
Answer: 6.59 µM (inactive)

Question: And the GI50 [56]?
Answer: > 46.7 µM (inactive)

Question: What about the GI50 [57] of the same compound?
Answer: 8.34 µM (inactive)

Question: And the GI50 [58]?
Answer: 21.9 µM (inactive)

Question: For `O=C(CSc1n[nH]c(=O)[nH]c1=O)NNC(=O)c1cccc2nc3ccccc3nc12`, which GI50 [1] is on record?
Answer: > 100 µM (inactive)

Question: What about the GI50 [2] of the same compound?
Answer: > 100 µM (inactive)

Question: And the GI50 [3]?
Answer: > 100 µM (inactive)

Question: What about the GI50 [4] of the same compound?
Answer: 90.4 µM (inactive)

Question: What about the GI50 [5] of the same compound?
Answer: > 100 µM (inactive)

Question: And the GI50 [6]?
Answer: 39.4 µM (inactive)

Question: What about the GI50 [7] of the same compound?
Answer: > 100 µM (inactive)

Question: And the GI50 [8]?
Answer: 35.6 µM (inactive)

Question: What about the GI50 [9] of the same compound?
Answer: 35.4 µM (inactive)

Question: What about the GI50 [10] of the same compound?
Answer: > 100 µM (inactive)

Question: What about the GI50 [11] of the same compound?
Answer: 35.9 µM (inactive)

Question: What about the GI50 [12] of the same compound?
Answer: > 100 µM (inactive)

Question: What about the GI50 [13] of the same compound?
Answer: 49.4 µM (inactive)

Question: And the GI50 [14]?
Answer: 94.8 µM (inactive)

Question: What about the GI50 [15] of the same compound?
Answer: > 100 µM (inactive)

Question: What about the GI50 [16] of the same compound?
Answer: > 100 µM (inactive)

Question: And the GI50 [17]?
Answer: > 100 µM (inactive)

Question: What about the GI50 [18] of the same compound?
Answer: > 100 µM (inactive)

Question: What about the GI50 [19] of the same compound?
Answer: 64.1 µM (inactive)

Question: What about the GI50 [20] of the same compound?
Answer: > 100 µM (inactive)

Question: And the GI50 [21]?
Answer: 68.1 µM (inactive)

Question: What about the GI50 [22] of the same compound?
Answer: > 100 µM (inactive)

Question: What about the GI50 [23] of the same compound?
Answer: > 100 µM (inactive)

Question: And the GI50 [25]?
Answer: 59.3 µM (inactive)

Question: What about the GI50 [59] of the same compound?
Answer: > 100 µM (inactive)

Question: What about the GI50 [26] of the same compound?
Answer: 22 µM (inactive)

Question: What about the GI50 [28] of the same compound?
Answer: 38.2 µM (inactive)

Question: What about the GI50 [29] of the same compound?
Answer: > 100 µM (inactive)

Question: What about the GI50 [30] of the same compound?
Answer: 29.2 µM (inactive)

Question: And the GI50 [31]?
Answer: > 100 µM (inactive)

Question: What about the GI50 [32] of the same compound?
Answer: 79.3 µM (inactive)

Question: And the GI50 [33]?
Answer: 71.6 µM (inactive)

Question: What about the GI50 [34] of the same compound?
Answer: > 100 µM (inactive)

Question: What about the GI50 [35] of the same compound?
Answer: 72.8 µM

Question: And the GI50 [36]?
Answer: > 100 µM (inactive)

Question: And the GI50 [37]?
Answer: > 100 µM (inactive)

Question: What about the GI50 [38] of the same compound?
Answer: 31.8 µM (inactive)

Question: What about the GI50 [39] of the same compound?
Answer: > 100 µM (inactive)

Question: And the GI50 [40]?
Answer: > 100 µM (inactive)

Question: What about the GI50 [41] of the same compound?
Answer: > 100 µM (inactive)

Question: What about the GI50 [42] of the same compound?
Answer: 58.7 µM (inactive)

Question: And the GI50 [43]?
Answer: 40.8 µM (inactive)

Question: What about the GI50 [44] of the same compound?
Answer: > 100 µM (inactive)

Question: What about the GI50 [45] of the same compound?
Answer: 26.5 µM (inactive)

Question: What about the GI50 [47] of the same compound?
Answer: > 100 µM (inactive)

Question: And the GI50 [48]?
Answer: > 100 µM (inactive)

Question: And the GI50 [49]?
Answer: > 100 µM (inactive)

Question: What about the GI50 [50] of the same compound?
Answer: > 100 µM (inactive)

Question: And the GI50 [51]?
Answer: 36.5 µM (inactive)

Question: What about the GI50 [52] of the same compound?
Answer: 46.1 µM (inactive)

Question: And the GI50 [53]?
Answer: > 100 µM (inactive)

Question: What about the GI50 [54] of the same compound?
Answer: > 100 µM (inactive)

Question: And the GI50 [55]?
Answer: > 100 µM (inactive)

Question: And the GI50 [56]?
Answer: 40.4 µM (inactive)

Question: And the GI50 [57]?
Answer: 32.6 µM (inactive)

Question: And the GI50 [58]?
Answer: > 100 µM (inactive)
